# From patent US8258098B2, “Antitumoral treatments” (Pharma Mar, S.A., priority 2006, dated 2012)
# System: UACC-257 human melanoma cells
# Assay: Antitumor efficacy against subcutaneous-implanted melanoma xenograft
# Format: in vivo, female, athymic NCr-nu/nu mice
# Conditions: UACC-257 xenograft, median tumor weight; Aplidine 60 μg/kg/dose IP q1d × 9, Carboplatin 50 mg/kg/dose IV q4d × 3
# Protocol: The animals were housed in microisolator cages, up to five per cage in a 12-hour light/dark cycle. Six-weeks-old female, athymic NCr-nu/nu mice were acclimated in the laboratories for one week prior to the experiment.
# Each mouse was inoculated subcutaneously near the right flank with UACC-257 human melanoma cells from an in vitro cell culture using a 23-gauge needle. Each mouse received 2×10^7 cells resuspended in 0.2 mL of Matrigel®. A vial with UACC-257 human melanoma frozen cells was thawed and cultured in RPMI 1640 medium containing low glucose (2,000 mg/L), sodium bicarbonate ([…]), 2 mM L-glutamine, and 10% fetal bovine serum (complete medium), and grown in a +37° C. incubator in a humidified atmosphere with 5% CO2 until the necessary number of cells for inoculation of mice was obtained. Cells were harvested after four passages in culture. […] The cell count and viability were determined with a Beckman Coulter VI CELL XR cell counter and viability analyzer. […]
# Animals were observed daily and clinical signed were noted. The s.c. tumors were measured and the animals were weighed twice weekly starting with the first day of treatment, Day 13. Tumor volume was determined by caliper measurements (mm) and using the formula for an ellipsoid sphere: L×W^2/2=mm^3, where L and W refer to the larger and smaller perpendicular dimensions collected at each measurement. […]
smiles,measurement,value
N.N.O=C([O-])C1(C(=O)[O-])CCC1.[Pt+2] [carboplatin],% T/C on day 23,95%
same,% T/C on day 70,60%
